From patent US11806350B2, “Prevention and/or treatment of CNS disorders” (ILDONG PHARMACEUTICAL CO., LTD., priority 2020, dated 2023)

How the values were obtained:
[1] = tested on: unilateral 6-hydroxydopamine (6-OHDA) lesion animal model of Parkinson's Disease; experiment: Axial, limb and orolingual abnormal involuntary movement scores (ALO AIMs) in 6-OHDA lesioned, L-DOPA primed rats; assay type: in vivo, Wistar Han rats; conditions: after 4 days L-DOPA priming wash out; per oral (1-30 mg/kg) or intranasal (0.3-10 mg/kg); FIG. 2B
Description: (§1) To generate animal model of Parkinson's Disease (PD), a number of 67 female Wistar Han rats of approximately 9 weeks of age received unilateral 6-hydroxydopamine (6-OHDA) lesion. To induce the 6-OHDA lesion, each of the animals received one injection with 2 μl (4 μg/μl) in the medial forebrain bundle (MFB). 6-OHDA is widely used to lesion the nigrostriatal dopaminergic system as a model of PD.
(§2) Three weeks after the injections, cylinder test for the evaluation of locomotor asymmetry was performed to determine the efficacy of the 6-OHDA lesion (4 animals died before testing). Based on the results of the cylinder test, 6-OHDA lesioned animals were further included in the study. In compound standalone testing groups (B+C), animals (n=52) were received L-DOPA (Levodopa or L-3,4-dihydroxyphenylalanine) priming (2 animals died before group allocation). Animals (n=11) not showing symptoms were eliminated without any further administration of test compounds or tissue collection. […]
ALO test was performed on treatment days (4 days after end of L-DOPA priming) with all animals used for the compound stand alone testing. ALO AIMs were scored starting 5 min […] after the vehicle, L-DOPA/Benserazide and IN administration of the test compound, and 2h (+/−5 min) after PO administration of the test compound and every 20 min thereafter for 3 h. […]
ALO AIMs were scored for 1 min, every 20 min for 180 min. […]

[2] = molecular target: T1, Human recombinant adenosine A2A receptors (Homo sapiens, UniProt P29274); experiment: Human adenosine A2A receptor binding assay ([3H]CGS-21680); conditions: membranes of HEK-293 cells, 50 nM [3H]CGS-21680, 90 minutes at 25° C.; read-out: hA2A Ki
T1 construct: expressed in transfected cells; host or cells: HEK-293 cells (membrane preparation)
T1 sequence (P29274 whole entry): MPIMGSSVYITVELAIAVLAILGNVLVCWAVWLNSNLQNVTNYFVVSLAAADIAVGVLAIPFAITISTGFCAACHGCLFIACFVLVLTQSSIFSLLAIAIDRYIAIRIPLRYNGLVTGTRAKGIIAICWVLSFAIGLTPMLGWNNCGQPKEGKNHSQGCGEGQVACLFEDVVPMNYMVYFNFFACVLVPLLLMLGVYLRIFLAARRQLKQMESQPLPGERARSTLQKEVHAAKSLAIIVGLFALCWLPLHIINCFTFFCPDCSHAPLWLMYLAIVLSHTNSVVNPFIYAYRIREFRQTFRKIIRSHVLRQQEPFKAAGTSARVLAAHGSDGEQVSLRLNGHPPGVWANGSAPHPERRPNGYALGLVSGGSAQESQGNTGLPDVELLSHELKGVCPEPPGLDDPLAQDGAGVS
Description: 2.2 Human Adenosine A2A Receptor Binding Assay
Test compound is weighed, dissolved in DMSO to make a stock solution of 10 mM, diluted with DMSO to prepare working solutions, then 100-fold diluted to the indicated concentrations. Human recombinant adenosine A2A receptors expressed in HEK-293 cells were used to prepare membranes in incubation buffer (50 mM Tris-HCl, pH 7.4, 10 mM MgCl2, 1 mM EDTA, 2 U/ml Adenosine Deaminase). Test compound or vehicle (2.2 μL) was added in 200 μL of membranes and incubated with 20 μL of 50 nM [^3H] […] Non-specific binding was estimated in the presence of 50 μM NECA (5′-N-ethylcarboxamidoadenosine). The incubation was stopped by vacuum filtration onto 0.3% PEI (polyethylenimine) presoaked GF/B filters using a harvester followed by four washes with ice-cold 50 mM Tris-HCl, pH 7.4, and the radioactivity on GF/B filtermats counted in a scintillation counter (PerkinElmer TOPCOUNT™) to determine [^3H] […] Final concentration of vehicle DMSO is 1%.
(§3) Data is fitted using the non-linear curve fitting routines in Meth-IQ software (ID Business Solutions Ltd., UK). IC50 is converted to Ki by Cheng-Prusoff equation: Ki=IC50/(1+[L]/KD) where [L] is concentration of radiolabeled ligand used in the assay.

[3] = tested on: unilateral 6-hydroxydopamine (6-OHDA) lesion animal model of Parkinson's Disease; experiment: Cylinder test (forelimb use asymmetry) in 6-OHDA lesioned rats; assay type: in vivo, Wistar Han rats
Description: as §1
as §2, with “allocation).” for “allocation). Animals (n=11) not showing symptoms were eliminated without any further administration of test compounds or tissue collection.”
Cylinder test was performed on treatment days (4 days after end of L-DOPA priming) with all animals used for testing. […] Each animal was individually evaluated for 5 minutes. The number of contacts on the cylinder wall with the right paw, left and both paws simultaneously were counted. The results were given in percentage and calculating is done as follows: the test total sum of contacts on the cylinder wall with the right paw, left paw and both totaled 100%, based on this, a percentage value for each finding was calculated (Araujo, 2013).

[4] = molecular target: T2, Human recombinant adenosine A1 receptors (Homo sapiens, UniProt P30542); experiment: Human adenosine A1 receptor binding assay ([3H]DPCPX); conditions: membranes of CHO-K1 cells, 1 nM [3H]DPCPX, 90 minutes at 25° C.; read-out: hAl Ki
T2 construct: expressed in transfected cells; host or cells: CHO-K1 cells (membrane preparation)
T2 sequence (P30542 1-326): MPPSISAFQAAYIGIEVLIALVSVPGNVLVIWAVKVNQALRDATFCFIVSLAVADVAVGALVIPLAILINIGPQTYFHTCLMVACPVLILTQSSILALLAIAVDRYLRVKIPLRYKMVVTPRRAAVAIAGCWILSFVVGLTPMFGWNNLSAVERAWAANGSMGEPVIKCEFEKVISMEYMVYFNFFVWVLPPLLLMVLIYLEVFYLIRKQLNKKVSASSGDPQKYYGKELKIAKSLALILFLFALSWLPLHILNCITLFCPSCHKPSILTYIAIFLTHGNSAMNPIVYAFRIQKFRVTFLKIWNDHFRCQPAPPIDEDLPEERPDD
Description: 2.1 Human Adenosine A1 Receptor Binding Assay
Test compound is weighed, dissolved in DMSO to make a stock solution of 10 mM, diluted with DMSO to prepare working solutions, then 100-fold diluted to the indicated concentrations. Human recombinant adenosine A1 receptors expressed in CHO-K1 cells were used to prepare membranes in incubation buffer (20 mM HEPES (4-(2-hydroxyethyl)-1-piperazineethanesulfonic acid) pH 7.4, 10 mM MgCl2, 100 mM NaCl). Test compound or vehicle (2.2 μL) was added in 200 μL of membranes and incubated with 20 μL of 1 nM [^3H] DPCPX (8-cyclopentyl-1,3-dipropylxanthine) for 90 minutes at 25° C. Non-specific binding was estimated in the presence of 100 μM R(−)-PIA ((R)—N-(1-methyl-2-phenylethyl)adenosine). The incubation was stopped by vacuum filtration onto 0.3% PEI (polyethylenimine) presoaked GF/B filters using a harvester followed by four washes with ice-cold 50 mM Tris-HCl, pH 7.4, and the radioactivity on GF/B filtermats counted in a scintillation counter (PerkinElmer Topcount™) to determine [^3H] DPCPX specifically bound. Final concentration of vehicle DMSO is 1%.
as §3

Structure (SMILES)	L-DOPA/Benserazide induced dyskinesia-like side effects (ALO AIM scores) [1]	Ki [2]	contralateral limb usage in cylinder test ([3]; IN route and PO route, compared to the vehicle treated group, FIGS. 3A, 3B)	contralateral limb usage in cylinder test, intranasal compared to PO administration ([3]; intranasal administration compared to the PO administration group)	Ki [4]
N#Cc1cccc(-c2nc(N)nc3c2cnn3Cc2ccc(N)c(C(F)(F)F)c2)c1 [Compound 210, 3-(6-amino-1-(4-amino-3-(trifluoromethyl)benzyl)-1H-pyrazolo[3,4-d]pyrimidine-4-yl)benzonitrile]	did not induce L-DOPA/Benserazide induced dyskinesia-like side effects	< 20 nM	concentration related trend towards increased contralateral limb usage	more pronounced concentration related trend	≤ 100 nM
Cc1cc(Cn2ncc3c(-c4cncc(C#N)c4)nc(N)nc32)ccc1N [Compound 229, 5-(6-amino-1-(4-amino-3-methylbenzyl)-1H-pyrazolo[3,4-d]pyrimidine-4-yl)nicotinonitrile]		1000 to 5000 nM			> 10000 nM
Cc1cc(Cn2ncc3c(-c4cc(C#N)ccn4)nc(N)nc32)ccc1N [Compound 228, 2-(6-amino-1-(4-amino-3-methylbenzyl)-1H-pyrazolo[3,4-d]pyrimidine-4-yl)isonicotinonitrile]		20 to 200 nM			100 to 1000 nM
Cc1cc(Cn2ncc3c(-c4ccnc(C#N)c4)nc(N)nc32)ccc1N [Compound 230, 4-(6-amino-1-(4-amino-3-methylbenzyl)-1H-pyrazolo[3,4-d]pyrimidine-4-yl)picolinonitrile]		1000 to 5000 nM			> 10000 nM
